Common to all, as to format: in vivo
Test [1] has as its system Alopecurus myosuroides (ALOMY). Put plainly: Pre-emergence biological efficacy, glasshouse pot test. As to conditions: 312 h, pre-emergence, rate 1,000 g/ha, evaluated after 13 days (100=total damage to plant; 0=no damage), read-out: Percentage damage caused to weed species, ALOMY. The gist of the method: (§1)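 One day after seeds were sown in pots, compound was sprayed at 1000 or 250 g/ha. Plants were kept at 24/16 °C with 14 h light and 65% humidity and watered twice daily; damage was graded at day 13 (0 none, 100 total).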

The subject of test [2] is Amaranthus retoflexus (AMARE). The description is as above. As to conditions: Amaranthus retroflexus, 312 h; pre-emergence, rate 1,000 g/ha, evaluated after 13 days (100=total damage to plant; 0=no damage); read-out: Percentage damage caused to weed species, AMARE. The gist of the method: as §1
Test [3] relates to Echinochloa crus-galli (ECHCG). The test is described as above. As to conditions: 312 h, pre-emergence, rate 1,000 g/ha, evaluated after 13 days (100=total damage to plant; 0=no damage), read-out: Percentage damage caused to weed species, ECHCG. The essentials:
as §1

For test [4], the system named is Ipomea hederaceae (IPOHE). Described as above. As to conditions: Ipomoea hederacea, 312 h; pre-emergence, rate 1,000 g/ha, evaluated after 13 days (100=total damage to plant; 0=no damage); read-out: Percentage damage caused to weed species, IPOHE. The essentials:
as §1

The test system of test [5] is Setaria faberi (SETFA). Described as above. As to conditions: 312 h, pre-emergence, rate 1,000 g/ha, evaluated after 13 days (100=total damage to plant; 0=no damage), read-out: Percentage damage caused to weed species, SETFA. The essentials: as §1
The subject of test [6] is Solanum nigrum (SOLNI). The description is as above. As to conditions: 312 h, pre-emergence, rate 1,000 g/ha, evaluated after 13 days (100=total damage to plant; 0=no damage), read-out: Percentage damage caused to weed species, SOLNI. The essentials:
as §1

For test [7], the system named is Alopecurus myosuroides (ALOMY). The experiment in a line: Post-emergence biological efficacy, glasshouse pot test. As to conditions: 312 h, Rate 1,000 g/ha, post-emergence spray, evaluated after 13 days (100=total damage to plant; 0=no damage to plant), read-out: Percentage damage caused to weed species, post-emergence, ALOMY. The gist of the method: (§2)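 Plants were sown in standard soil and grown 8 days in a glasshouse (24/16° C. day/night, 14 hours light, 65% humidity), then sprayed post-emergence at 1000 or 250 g/ha from acetone/water (50:50) with 0.5% Tween 20. Damage was scored visually after 13 days (0 = none, 100 = total).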

The subject of test [8] is Amaranthus retoflexus (AMARE). The test is described as above. As to conditions: Amaranthus retroflexus, 312 h; Rate 1,000 g/ha; post-emergence spray; evaluated after 13 days (100=total damage to plant; 0=no damage to plant); read-out: Percentage damage caused to weed species, post-emergence, AMARE. The gist of the method: as §2
Test [9] relates to Echinochloa crus-galli (ECHCG). The description is as above. As to conditions: 312 h, Rate 1,000 g/ha, post-emergence spray, evaluated after 13 days (100=total damage to plant; 0=no damage to plant), read-out: Percentage damage caused to weed species, post-emergence, ECHCG. The essentials: as §2
The test system of test [10] is Ipomea hederaceae (IPOHE). The description is as above. As to conditions: Ipomoea hederacea, 312 h; Rate 1,000 g/ha; post-emergence spray; evaluated after 13 days (100=total damage to plant; 0=no damage to plant); read-out: Percentage damage caused to weed species, post-emergence, IPOHE. The essentials: as §2
In test [11] the test system is Setaria faberi (SETFA). The test is described as above. As to conditions: 312 h, Rate 1,000 g/ha, post-emergence spray, evaluated after 13 days (100=total damage to plant; 0=no damage to plant), read-out: Percentage damage caused to weed species, post-emergence, SETFA. The gist of the method: as §2
The subject of test [12] is Solanum nigrum (SOLNI). Described as above. As to conditions: 312 h, Rate 1,000 g/ha, post-emergence spray, evaluated after 13 days (100=total damage to plant; 0=no damage to plant), read-out: Percentage damage caused to weed species, post-emergence, SOLNI. The gist of the method: as §2

Each structure is given as a SMILES string.

Take `COC(=O)c1nc(-c2cc(F)c(Cl)c(F)c2)nc(NCc2ccco2)c1Cl` [Compound 232-48, 5-Chloro-2-(4-chloro-3,5-difluorophenyl)-4-(furan-2-ylmethyl-amino)-6-methoxy-carbonylpyrimidine]: the pest or weed control at 1000 g/ha in [1], in test [2], in test [3], in [4], in test [5] and in test [6] was 0% throughout. For the same compound, the pest or weed control at 1000 g/ha in test [7] came out at 0%; in test [8], 20%; in test [9], 0%; in test [10] it was 10%; in test [11], 0%; in test [12], 60%.

Turning to `COC(=O)c1nc(-c2ccc(C(F)(F)F)cc2)nc(NCc2ccco2)c1Cl` [Compound 233-48, 5-Chloro-4-(furan-2-ylmethylamino)-6-methoxycarbonyl-2-(4-trifluoromethyl-phenyl)pyrimidine], the pest or weed control at 1000 g/ha in test [1] amounted to 30%; in test [2], 100%; in [3], 20%; in test [4], 60%; in [5] it was 20%; in test [6], 100%. Moreover, the pest or weed control at 1000 g/ha in test [7] was 20%; in test [8], 80%; in [9], 30%; in test [10] it was 70%; in [11] it was 10%; in test [12] it was 80%.

Turning to `COC(=O)c1nc(-c2ccc(C(F)(F)F)cc2C(F)(F)F)nc(NCc2ccco2)c1Cl` [Compound 234-48, 2-[2,4-Bis(trifluoro-methyl)phenyl]-5-chloro-4-(furan-2-yl-methylamino)-6-methoxycarbonyl-pyrimidine], the pest or weed control at 1000 g/ha amounted to 20% in test [1]; 90% in test [2]; 10% in test [3]; 100% in test [4]; 10% in test [5]; 80% in [6]. The pest or weed control at 1000 g/ha came to 10% in test [7]; 100% in [8]; 30% in [9]; 100% in [10]; 40% in [11]; 80% in [12].

For `COC(=O)c1nc(-c2ccc(C(F)(F)F)c(Cl)c2)nc(NCc2ccco2)c1Cl` [Compound 235-48, 5-Chloro-2-(3-chloro-4-trifluoromethyl-phenyl)-4-(furan-2-ylmethylamino)-6-methoxycarbonyl-pyrimidine], the pest or weed control at 1000 g/ha is 0% in test [1]; 10% in test [2]; 0% in test [3]; 20% in test [4]; 0% in test [5]; 20% in [6]. Further, the pest or weed control at 1000 g/ha was determined as 10% in test [7]; 80% in test [8]; 0% in test [9]; 60% in test [10]; 10% in test [11]; 80% in test [12].

`COC(=O)c1nc(-c2ccc(C)cc2)nc(NCc2ccco2)c1Cl` [Compound 237-48, 5-Chloro-4-(furan-2-ylmethylamino)-6-methoxycarbonyl-2-(4-methylphenyl)-pyrimidine]: the pest or weed control at 1000 g/ha in test [1] came to 20%; in test [2] it was 100%; in test [3] it was 20%; in [4], 30%; in [5] it was 0%; in [6], 0%. Moreover, the pest or weed control at 1000 g/ha in [7] was 0%; in test [8], 100%; in test [9] it was 0%; in test [10], 70%; in test [11] it was 0%; in test [12] it was 60%.

Regarding `COC(=O)c1nc(-c2ccc(C)cc2Cl)nc(NCc2ccco2)c1Cl` [Compound 238-48, 5-Chloro-2-(2-chloro-4-methylphenyl)-4-(furan-2-yl-methyl-amino)-6-methoxy-carbonylpyrimidine], the pest or weed control at 1000 g/ha was determined as 20% in [1]; 100% in [2]; 0% in test [3]; 0% in [4]; 10% in [5]; 0% in test [6]. For the same compound, the pest or weed control at 1000 g/ha amounted to 10% in test [7]; 100% in test [8]; 0% in [9]; 60% in [10]; 0% in [11]; 30% in test [12].

For `COC(=O)c1nc(-c2ccc(C)c(Cl)c2)nc(NCc2ccco2)c1Cl` [Compound 239-48, 5-Chloro-2-(3-chloro-4-methylphenyl)-4-(furan-2-yl-methyl-amino)-6-methoxy-carbonylpyrimidine], the pest or weed control at 1000 g/ha in test [1], in test [2], in test [3], in test [4], in test [5] and in [6] was 0% throughout. The pest or weed control at 1000 g/ha was 0% in test [7]; 20% in test [8]; 0% in test [9]; 30% in test [10]; 0% in [11]; 30% in test [12].

On to `COC(=O)c1nc(-c2ccc(C)c(F)c2)nc(NCc2ccco2)c1Cl` [Compound 240-48, 5-Chloro-2-(3-fluoro-4-methylphenyl)-4-(furan-2-yl-methyl-amino)-6-methoxy-carbonylpyrimidine], for which the pest or weed control at 1000 g/ha was 0% in test [1]; 100% in test [2]; 0% in test [3]; 0% in test [4]; 0% in test [5]; 50% in test [6]. The pest or weed control at 1000 g/ha in test [7] was 0%; in test [8], 100%; in test [9] it was 20%; in test [10], 70%; in [11], 10%; in [12], 30%.

The record behind these values is patent US20110086759A1, “CHEMICAL COMPOUNDS” (SYNGENTA CROP PROTECTION, INC., priority 2007, published 2011).
